# Laboratory results as given in PMC7486443, “Generation of Phenothiazine with Potent Anti-TLK1 Activity for Prostate Cancer Therapy” (iScience, 2020).
# How the values were obtained:
# Assay in all cases: biochemical
# Design in all cases: DiscoverX KINOMEscan scanMAX competition binding panel, single concentration, percent of control; remaining binding: dose or concentration left out as unconfirmed
# Settings in all cases: KINOMEscan binding, percent of control; read-out: Table S4_SCANMAX REPORT - related to Fig. 1 / Percent Control
# CDKL2 = CDKL2 (Homo sapiens, UniProt Q92772)
# MST1R = MST1R (Homo sapiens, UniProt Q04912)
# PKAC-beta = molecular target: T1, PKAC-beta (Homo sapiens, UniProt P22694)
# T1 construct: gene PRKACB
# CSNK1E = CSNK1E (Homo sapiens, UniProt P49674)
# MST3 = molecular target: T2, MST3 (Homo sapiens, UniProt Q9Y6E0)
# T2 construct: gene STK24
# TYRO3 = TYRO3 (Homo sapiens, UniProt Q06418)
# MEK6 = molecular target: T3, MEK6 (Homo sapiens, UniProt P52564)
# T3 construct: gene MAP2K6
# RIOK3 = RIOK3 (Homo sapiens, UniProt O14730)
# KIT(L576P) = KIT(L576P) (Homo sapiens, UniProt P10721, L576P)
# FLT3(D835Y) = FLT3(D835Y) (Homo sapiens, UniProt P36888, D835Y)
# IKK-epsilon = molecular target: T4, IKK-epsilon (Homo sapiens, UniProt Q14164)
# T4 construct: gene IKBKE
# TAK1 = molecular target: T5, TAK1 (Homo sapiens, UniProt O43318)
# T5 construct: gene MAP3K7
# CSNK1G1 = CSNK1G1 (Homo sapiens, UniProt Q9HCP0)
# PRKX = PRKX (Homo sapiens, UniProt P51817)
# SYK = SYK (Homo sapiens, UniProt P43405)
# ADCK4 = molecular target: T6, ADCK4 (Homo sapiens, UniProt Q96D53)
# T6 construct: gene COQ8B
# HUNK = HUNK (Homo sapiens, UniProt P57058)
# PIK3CA = PIK3CA (Homo sapiens, UniProt P42336)
# FGFR4 = FGFR4 (Homo sapiens, UniProt P22455)
# PRKX, sequence (P51817 whole entry): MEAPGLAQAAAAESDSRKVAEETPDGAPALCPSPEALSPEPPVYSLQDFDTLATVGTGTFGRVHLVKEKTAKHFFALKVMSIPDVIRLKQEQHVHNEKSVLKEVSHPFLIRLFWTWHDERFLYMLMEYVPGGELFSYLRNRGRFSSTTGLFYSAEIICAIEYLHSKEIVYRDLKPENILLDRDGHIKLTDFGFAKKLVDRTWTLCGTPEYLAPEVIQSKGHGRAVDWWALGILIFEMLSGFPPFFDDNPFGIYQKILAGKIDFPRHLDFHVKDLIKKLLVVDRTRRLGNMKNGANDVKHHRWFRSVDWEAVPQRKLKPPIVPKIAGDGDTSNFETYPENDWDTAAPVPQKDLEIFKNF
# RIOK3, sequence (O14730 whole entry): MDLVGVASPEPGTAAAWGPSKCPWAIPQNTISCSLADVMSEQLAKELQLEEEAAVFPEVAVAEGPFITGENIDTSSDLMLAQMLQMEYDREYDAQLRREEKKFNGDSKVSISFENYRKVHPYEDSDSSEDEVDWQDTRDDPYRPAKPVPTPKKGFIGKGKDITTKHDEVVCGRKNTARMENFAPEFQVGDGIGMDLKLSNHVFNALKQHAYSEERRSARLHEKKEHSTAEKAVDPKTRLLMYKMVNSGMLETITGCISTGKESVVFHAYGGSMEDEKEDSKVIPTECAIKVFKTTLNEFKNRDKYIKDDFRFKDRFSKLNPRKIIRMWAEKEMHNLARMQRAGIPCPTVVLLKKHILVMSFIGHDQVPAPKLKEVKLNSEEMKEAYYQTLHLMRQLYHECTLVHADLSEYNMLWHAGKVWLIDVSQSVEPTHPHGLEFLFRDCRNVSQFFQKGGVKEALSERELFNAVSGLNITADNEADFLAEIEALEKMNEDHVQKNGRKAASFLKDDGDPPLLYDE
# T3 sequence (P52564 whole entry): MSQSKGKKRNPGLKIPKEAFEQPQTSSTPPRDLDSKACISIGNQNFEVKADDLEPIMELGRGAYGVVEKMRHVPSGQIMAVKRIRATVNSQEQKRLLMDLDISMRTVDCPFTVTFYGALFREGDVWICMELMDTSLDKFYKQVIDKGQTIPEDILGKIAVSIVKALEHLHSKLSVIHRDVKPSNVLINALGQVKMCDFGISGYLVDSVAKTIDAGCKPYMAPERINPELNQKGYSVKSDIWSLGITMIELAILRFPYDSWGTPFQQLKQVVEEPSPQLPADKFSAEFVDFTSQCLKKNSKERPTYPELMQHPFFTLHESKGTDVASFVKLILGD
# CSNK1G1, sequence (Q9HCP0 whole entry): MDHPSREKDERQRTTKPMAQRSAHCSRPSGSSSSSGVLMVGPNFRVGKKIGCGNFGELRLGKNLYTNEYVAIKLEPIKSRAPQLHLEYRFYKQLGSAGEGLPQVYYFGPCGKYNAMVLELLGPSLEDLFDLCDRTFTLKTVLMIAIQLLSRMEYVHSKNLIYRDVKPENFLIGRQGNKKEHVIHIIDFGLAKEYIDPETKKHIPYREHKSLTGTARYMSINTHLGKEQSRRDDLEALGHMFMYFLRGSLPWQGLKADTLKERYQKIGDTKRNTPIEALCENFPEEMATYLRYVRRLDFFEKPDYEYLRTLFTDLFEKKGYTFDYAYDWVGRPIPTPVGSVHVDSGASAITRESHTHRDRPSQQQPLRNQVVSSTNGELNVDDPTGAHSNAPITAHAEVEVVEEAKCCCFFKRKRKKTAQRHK
# T5 sequence (O43318 whole entry): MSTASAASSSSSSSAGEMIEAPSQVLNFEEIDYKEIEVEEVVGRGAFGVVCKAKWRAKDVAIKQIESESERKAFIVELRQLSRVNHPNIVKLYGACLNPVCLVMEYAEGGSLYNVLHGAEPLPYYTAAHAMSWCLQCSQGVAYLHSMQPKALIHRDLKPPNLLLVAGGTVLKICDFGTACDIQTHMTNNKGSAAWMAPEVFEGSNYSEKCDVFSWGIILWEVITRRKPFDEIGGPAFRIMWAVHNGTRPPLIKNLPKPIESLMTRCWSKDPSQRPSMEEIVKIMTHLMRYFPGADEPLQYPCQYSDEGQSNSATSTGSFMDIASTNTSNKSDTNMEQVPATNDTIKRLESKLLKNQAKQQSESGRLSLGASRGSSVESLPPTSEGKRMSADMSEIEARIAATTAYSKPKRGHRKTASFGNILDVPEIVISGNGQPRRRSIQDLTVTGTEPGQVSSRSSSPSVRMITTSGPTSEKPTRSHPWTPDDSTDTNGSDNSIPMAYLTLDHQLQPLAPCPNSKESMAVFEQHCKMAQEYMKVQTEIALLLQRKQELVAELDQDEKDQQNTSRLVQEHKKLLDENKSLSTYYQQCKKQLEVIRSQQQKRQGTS
# T4 sequence (Q14164 whole entry): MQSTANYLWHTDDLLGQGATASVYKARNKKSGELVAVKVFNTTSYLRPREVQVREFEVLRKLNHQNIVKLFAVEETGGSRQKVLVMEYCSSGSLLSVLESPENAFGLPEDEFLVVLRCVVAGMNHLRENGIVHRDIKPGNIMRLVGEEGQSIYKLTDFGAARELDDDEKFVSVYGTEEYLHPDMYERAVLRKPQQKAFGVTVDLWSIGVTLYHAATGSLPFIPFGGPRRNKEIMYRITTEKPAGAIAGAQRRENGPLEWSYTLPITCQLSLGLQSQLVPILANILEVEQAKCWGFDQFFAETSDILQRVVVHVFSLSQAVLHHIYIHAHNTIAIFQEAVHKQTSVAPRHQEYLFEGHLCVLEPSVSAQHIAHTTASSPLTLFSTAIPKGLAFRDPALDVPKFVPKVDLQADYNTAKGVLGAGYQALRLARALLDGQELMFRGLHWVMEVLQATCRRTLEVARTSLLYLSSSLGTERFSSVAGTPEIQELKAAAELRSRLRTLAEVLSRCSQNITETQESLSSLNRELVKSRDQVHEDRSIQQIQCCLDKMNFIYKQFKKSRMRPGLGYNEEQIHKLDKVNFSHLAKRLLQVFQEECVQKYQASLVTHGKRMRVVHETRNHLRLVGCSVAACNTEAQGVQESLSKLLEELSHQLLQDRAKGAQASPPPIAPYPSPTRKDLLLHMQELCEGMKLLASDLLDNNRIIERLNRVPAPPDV
# T2 sequence (Q9Y6E0 whole entry): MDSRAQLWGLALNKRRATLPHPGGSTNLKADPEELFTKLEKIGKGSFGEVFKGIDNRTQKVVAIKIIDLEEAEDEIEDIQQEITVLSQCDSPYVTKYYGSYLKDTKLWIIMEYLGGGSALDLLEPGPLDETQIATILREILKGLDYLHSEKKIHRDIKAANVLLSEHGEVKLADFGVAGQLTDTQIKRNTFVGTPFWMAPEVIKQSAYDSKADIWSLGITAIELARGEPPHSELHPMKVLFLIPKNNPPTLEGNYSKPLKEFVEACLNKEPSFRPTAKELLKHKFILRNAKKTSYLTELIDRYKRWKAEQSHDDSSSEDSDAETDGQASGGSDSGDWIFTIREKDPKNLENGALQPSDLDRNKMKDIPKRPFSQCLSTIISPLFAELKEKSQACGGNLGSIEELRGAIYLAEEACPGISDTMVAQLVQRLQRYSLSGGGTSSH
# KIT(L576P), sequence (P10721 whole entry L576P): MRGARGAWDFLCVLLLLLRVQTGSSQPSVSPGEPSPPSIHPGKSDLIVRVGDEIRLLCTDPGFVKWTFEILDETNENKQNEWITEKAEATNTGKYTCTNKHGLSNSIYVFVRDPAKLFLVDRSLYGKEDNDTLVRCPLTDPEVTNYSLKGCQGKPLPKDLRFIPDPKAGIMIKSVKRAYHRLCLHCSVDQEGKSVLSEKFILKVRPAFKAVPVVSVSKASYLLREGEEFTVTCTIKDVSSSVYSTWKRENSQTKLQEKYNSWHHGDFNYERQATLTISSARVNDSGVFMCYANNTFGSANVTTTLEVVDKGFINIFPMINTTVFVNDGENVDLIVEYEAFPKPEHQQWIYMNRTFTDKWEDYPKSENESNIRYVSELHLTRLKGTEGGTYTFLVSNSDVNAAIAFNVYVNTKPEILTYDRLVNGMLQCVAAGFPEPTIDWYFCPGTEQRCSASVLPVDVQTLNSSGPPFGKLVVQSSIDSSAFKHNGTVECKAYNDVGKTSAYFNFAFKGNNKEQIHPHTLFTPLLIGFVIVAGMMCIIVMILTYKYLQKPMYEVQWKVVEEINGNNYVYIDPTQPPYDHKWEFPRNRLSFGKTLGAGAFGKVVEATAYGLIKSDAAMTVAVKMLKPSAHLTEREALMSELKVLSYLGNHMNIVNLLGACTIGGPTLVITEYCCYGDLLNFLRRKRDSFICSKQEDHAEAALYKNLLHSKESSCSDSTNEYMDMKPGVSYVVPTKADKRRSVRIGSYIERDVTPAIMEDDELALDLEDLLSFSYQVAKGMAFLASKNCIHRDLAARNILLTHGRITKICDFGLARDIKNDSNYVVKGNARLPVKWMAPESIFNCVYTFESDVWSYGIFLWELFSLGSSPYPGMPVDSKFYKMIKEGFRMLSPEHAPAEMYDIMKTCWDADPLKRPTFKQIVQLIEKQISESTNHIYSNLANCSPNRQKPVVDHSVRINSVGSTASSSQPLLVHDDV
# T6 sequence (Q96D53 whole entry): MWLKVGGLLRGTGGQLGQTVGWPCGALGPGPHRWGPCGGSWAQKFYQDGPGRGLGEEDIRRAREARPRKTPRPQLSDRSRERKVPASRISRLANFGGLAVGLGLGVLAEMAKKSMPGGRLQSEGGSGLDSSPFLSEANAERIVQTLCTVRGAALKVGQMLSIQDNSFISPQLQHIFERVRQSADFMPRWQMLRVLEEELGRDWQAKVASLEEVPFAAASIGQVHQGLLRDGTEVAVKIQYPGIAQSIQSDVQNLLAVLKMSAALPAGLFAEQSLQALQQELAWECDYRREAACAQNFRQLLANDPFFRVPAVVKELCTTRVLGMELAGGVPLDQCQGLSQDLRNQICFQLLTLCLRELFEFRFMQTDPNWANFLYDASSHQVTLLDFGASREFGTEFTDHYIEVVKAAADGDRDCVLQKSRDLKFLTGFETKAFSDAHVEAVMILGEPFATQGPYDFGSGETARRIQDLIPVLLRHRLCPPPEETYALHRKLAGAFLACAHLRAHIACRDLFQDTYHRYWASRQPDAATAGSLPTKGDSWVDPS
smiles,measurement,setting,value
c1ccc2c(c1)Sc1ccccc1N2CCN1CCOCC1 [J54],remaining binding,CDKL2,100%
same,remaining binding,MST1R,100%
same,remaining binding,PKAC-beta,86%
same,remaining binding,CSNK1E,100%
same,remaining binding,MST3,100%
same,remaining binding,TYRO3,100%
same,remaining binding,MEK6,96%
same,remaining binding,RIOK3,72%
same,remaining binding,KIT(L576P),100%
same,remaining binding,FLT3(D835Y),79%
same,remaining binding,IKK-epsilon,75%
same,remaining binding,TAK1,97%
same,remaining binding,CSNK1G1,100%
same,remaining binding,PRKX,91%
same,remaining binding,SYK,100%
same,remaining binding,ADCK4,75%
same,remaining binding,HUNK,58%
same,remaining binding,PIK3CA,94%
same,remaining binding,FGFR4,100%
